Patent US8436011B2, “Pyridinopyridinone derivatives, preparation thereof and therapeutic use thereof” (Sanofi, priority 2008, dated 2013)
Where two headings read alike, the source gives them in different places.

How the values were obtained:
[1] = target: fusion protein FIP1L1-PDGF-Rα (EOL-1 cell line) (Homo sapiens, UniProt P16234); test: Inhibition of PDGF alpha receptor tyrosine kinase activity: proliferation of EOL-1 cells (CellTiter-Glo, 72 h); assay type: cell-based
Method: Measurement of Inhibition of the Tyrosine Kinase Activity of the PDGF Alpha Receptor: The inhibitory effect of the compounds according to the invention towards the tyrosine kinase activity of the PDGF alpha receptor was evaluated on the EOL-1 cell line, which line is established from a leukaemia of constitutively active chronic eosinophilic leukaemia (CEL) type. The EOL-1 line has been described as expressing the fusion protein FIP1L1-PDGF-Rα and is sensitive to kinase inhibitors in proliferation tests (Cools J. et al., Blood 2004, 103, […]). The inhibitory activity is correlated to the inhibition of cell growth. […] After incubation for 72 hours, the viable cells are quantified by measuring the cellular ATP by means of the CellTiter-Glo® kit (Promega, Cat G7571). The cells are treated according to the instructions given by the kit manufacturer, and the luminescence is measured using a Luminoskan (Ascent, Labsystem) with the following parameters: measurement: single; integration time: 1000 ms, lag time: 5 s. It is thus seen that the compounds according to the invention have inhibitory activity on the tyrosine kinase activity of PDGF-Rα. This activity is given by the concentration that inhibits 50% of the proliferation of the EOL-1 cells.

[2] = target: T1, FLT3 receptor (MV4-11 cell line bearing an FLT3ITD mutant) (Homo sapiens, UniProt P36888, INS600HVDFREYEYD); test: Inhibition of FLT3 receptor tyrosine kinase activity: proliferation of MV4-11 cells (CellTiter-Glo, 72 h); assay type: cell-based; settings: 72 hours incubation, read-out: IC50 (concentration that inhibits 50% of the proliferation of the MV4-11 cells)
T1 construct: MV4-11 cell line, which line is established from a leukaemia of constitutively active AML type bearing an FLT3ITD mutant; endogenous in cells; host or cells: MV4-11
T1 sequence (P36888 with tags, fused parts or gaps INS600HVDFREYEYD): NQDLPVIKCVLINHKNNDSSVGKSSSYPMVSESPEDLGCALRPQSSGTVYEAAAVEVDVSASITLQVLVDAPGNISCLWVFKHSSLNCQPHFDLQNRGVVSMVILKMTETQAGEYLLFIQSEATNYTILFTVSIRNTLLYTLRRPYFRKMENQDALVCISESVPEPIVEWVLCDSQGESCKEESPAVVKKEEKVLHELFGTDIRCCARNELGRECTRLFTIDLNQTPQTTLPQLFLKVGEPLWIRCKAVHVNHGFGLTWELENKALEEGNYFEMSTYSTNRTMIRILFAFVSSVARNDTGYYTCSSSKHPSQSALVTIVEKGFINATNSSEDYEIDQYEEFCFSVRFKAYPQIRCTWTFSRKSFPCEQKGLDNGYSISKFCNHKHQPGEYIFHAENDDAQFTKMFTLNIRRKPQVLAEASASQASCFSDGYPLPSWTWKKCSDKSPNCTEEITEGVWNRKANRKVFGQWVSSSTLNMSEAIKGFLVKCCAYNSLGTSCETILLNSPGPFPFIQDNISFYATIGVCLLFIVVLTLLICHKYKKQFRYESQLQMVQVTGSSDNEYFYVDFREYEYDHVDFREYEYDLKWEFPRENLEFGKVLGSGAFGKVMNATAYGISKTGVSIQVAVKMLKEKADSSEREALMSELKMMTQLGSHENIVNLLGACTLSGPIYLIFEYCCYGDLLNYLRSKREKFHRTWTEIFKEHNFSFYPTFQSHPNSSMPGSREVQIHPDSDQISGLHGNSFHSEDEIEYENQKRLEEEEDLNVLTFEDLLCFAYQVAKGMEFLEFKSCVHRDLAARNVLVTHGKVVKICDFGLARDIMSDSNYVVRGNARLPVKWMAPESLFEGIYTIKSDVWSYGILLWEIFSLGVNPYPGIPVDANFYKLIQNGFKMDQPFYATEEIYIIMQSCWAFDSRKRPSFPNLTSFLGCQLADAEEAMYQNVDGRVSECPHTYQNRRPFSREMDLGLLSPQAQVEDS
Method: Measurement of Inhibition of the Tyrosine Kinase Activity of the FLT3 Receptor
The inhibitory effect of the compounds according to the invention towards the tyrosine kinase activity of the FLT3 receptor was evaluated on an MV4-11 cell line, which line is established from a leukaemia of constitutively active AML type bearing an FLT3ITD mutant. The inhibitory activity is correlated to the inhibition of cell growth, according to the protocols described by Spiekermann, K. et al., Blood, 2003, 101, (4) 1494-1504 and O'Farrell, A.-M. et al., Blood, 2003, 101, (9) 3597-3605.
(§1) MV4-11 cells are washed with PBS buffer and inoculated in 96-well plates, at a density of 1×10^5 cells/ml (100 μL per well), in RPMI 1640 containing 10% FCS, in the presence or absence of the test compounds. After incubation for 72 hours, the viable cells are quantified by measuring the cellular ATP by means of the CellTiter-Glo® kit (Promega, Cat G7571). The cells are treated according to the instructions given by the kit manufacturer, and the luminescence is measured using a Luminoskan (Ascent, Labsystem) with the following parameters: measurement: single; integration time: 1000 ms, lag time: 5 s.
The inhibitory activity with respect to the FLT3 receptor is given by the concentration that inhibits 50% of the proliferation of the MV4-11 cells.

[3] = target: T2, fusion protein Tel/PDGF-Rβ (BaF3 Tel/PDGF cells) (Homo sapiens, UniProt P09619); test: Inhibition of PDGF-Rβ tyrosine kinase activity: proliferation of BaF3 Tel/PDGF cells (CellTiter-Glo, 72 h); assay type: cell-based, murine; settings: 72 hours incubation, read-out: IC50 (concentration that inhibits 50% of the proliferation of the BaF3 Tel/PDGF cells)
T2 construct: the transmembrane and intracellular part of the PDGF-Rβ receptor; N-terminal part of the Tel transcription factor (ETV6); expressed in transfected cells; host or cells: murine haematopoietic cell line BaF/3; the other entry of the earlier key: ETV6 (P41212, Transcription factor ETV6)
T2 sequence (P09619 with tags, fused parts or gaps): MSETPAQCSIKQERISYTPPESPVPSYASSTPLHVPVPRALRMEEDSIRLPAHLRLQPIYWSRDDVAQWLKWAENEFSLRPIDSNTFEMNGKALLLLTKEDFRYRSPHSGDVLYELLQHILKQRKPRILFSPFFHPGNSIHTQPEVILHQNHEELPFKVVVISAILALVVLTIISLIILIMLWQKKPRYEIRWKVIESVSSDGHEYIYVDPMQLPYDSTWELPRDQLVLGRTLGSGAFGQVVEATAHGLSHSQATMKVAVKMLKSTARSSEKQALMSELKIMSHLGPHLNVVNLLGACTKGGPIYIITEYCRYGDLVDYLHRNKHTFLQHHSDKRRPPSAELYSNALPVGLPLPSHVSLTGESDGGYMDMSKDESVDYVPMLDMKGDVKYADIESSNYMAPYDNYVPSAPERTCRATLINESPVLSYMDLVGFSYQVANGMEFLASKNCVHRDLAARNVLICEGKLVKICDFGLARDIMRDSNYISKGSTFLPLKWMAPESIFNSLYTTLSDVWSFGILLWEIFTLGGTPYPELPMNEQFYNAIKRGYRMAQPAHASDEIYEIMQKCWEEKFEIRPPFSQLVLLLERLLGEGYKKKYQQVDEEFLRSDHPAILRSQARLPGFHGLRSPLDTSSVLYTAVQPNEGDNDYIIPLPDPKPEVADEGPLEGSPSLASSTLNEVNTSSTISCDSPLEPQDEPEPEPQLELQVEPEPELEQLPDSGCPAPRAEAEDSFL
Method: Measurement of Inhibition of the Tyrosine Kinase Activity of the PDGF Beta (PDGF-Rβ) (Baf-3 tel/PDGFIRβ) Receptor:
This test consists in evaluating the effects of the compounds on the tyrosine kinase activity of the PDGF beta receptor.
The inhibitory effect of the compounds according to the invention towards the tyrosine kinase activity of the PDGF-R receptor was evaluated on the murine haematopoietic cell line BaF/3 transfected with a plasmid coding for the fusion protein Tel/PDGF-Rβ. This fusion protein is found in chronic myelomonocytic myeloid leukaemias (CMML). It comprises the N-terminal part of the Tel transcription factor and the transmembrane and intracellular part of the PDGF-Rβ receptor. This fusion protein is present in dimerized form (presence of an oligomerization domain in the N-terminal part of Tel) and, as a result, leads to constitutive activity of the kinase domain of PDGF-Rβ. This line BaF3 Tel/PDGF has been described in the literature several times and especially, in detailed manner, in the article by M. Carroll et al., PNAS, 1996, 93, 14845-14850.
as §1, with “The BaF3 Tel/PDGF” for “MV4-11”, “phosphate” for “PBS”, “5×10^4” for “1×10^5”, “[…]” for “μL”
It is thus seen that the compounds according to the invention have inhibitory activity on the tyrosine kinase activity of PDGF-Rβ. This activity is given by the concentration that inhibits 50% of the proliferation of the BaF3 Tel/PDGF cells (IC50).

[4] = read-out: IC50 (concentration that inhibits 50% of the proliferation of the EOL-1 cells), 72 hours incubation
[5] = 72 hours incubation, read-out: IC50 (concentration that inhibits 50% of the proliferation of the EOL-1 cells)

Chain of fusion protein FIP1L1-PDGF-Rα (EOL-1 cell line) (P16234 579-1089, change not shown): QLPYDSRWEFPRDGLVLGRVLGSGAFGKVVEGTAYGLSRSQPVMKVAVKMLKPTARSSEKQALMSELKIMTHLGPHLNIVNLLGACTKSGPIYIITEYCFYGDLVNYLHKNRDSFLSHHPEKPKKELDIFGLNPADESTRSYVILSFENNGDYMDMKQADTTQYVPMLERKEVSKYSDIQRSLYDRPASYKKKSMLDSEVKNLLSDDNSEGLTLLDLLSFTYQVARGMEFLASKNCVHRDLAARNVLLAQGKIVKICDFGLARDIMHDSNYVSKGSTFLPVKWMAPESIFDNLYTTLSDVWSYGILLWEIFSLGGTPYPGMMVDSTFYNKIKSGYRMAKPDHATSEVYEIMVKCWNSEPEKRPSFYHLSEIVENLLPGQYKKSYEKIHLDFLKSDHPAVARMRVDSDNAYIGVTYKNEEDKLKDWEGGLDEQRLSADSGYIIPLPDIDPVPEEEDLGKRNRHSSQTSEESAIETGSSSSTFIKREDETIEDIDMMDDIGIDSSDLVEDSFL
Chain of fusion protein FIP1L1-PDGF-Rα (EOL-1 cell line) (Q6UN15 1-339 partner): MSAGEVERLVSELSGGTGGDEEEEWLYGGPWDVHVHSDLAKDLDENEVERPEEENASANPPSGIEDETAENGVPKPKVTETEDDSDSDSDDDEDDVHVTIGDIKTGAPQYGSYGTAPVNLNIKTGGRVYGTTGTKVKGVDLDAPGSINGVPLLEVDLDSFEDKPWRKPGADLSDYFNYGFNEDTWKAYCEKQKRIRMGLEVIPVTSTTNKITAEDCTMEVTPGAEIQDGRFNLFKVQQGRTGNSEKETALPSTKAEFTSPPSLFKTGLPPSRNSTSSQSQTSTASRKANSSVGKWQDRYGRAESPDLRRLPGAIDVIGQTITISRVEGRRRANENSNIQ

Compound	IC50 [1, 4]	IC50 [2]	melting point	IC50 [3]	IC50 [1, 5]
CCn1c(N)c(C(=O)NC)c(=O)c2ccc(-c3ccc(CC(=O)Nc4ccccc4Cl)cc3)nc21 [compound 5, 2-amino-7-(4-{2-[(2-chlorophenyl)amino]-2-oxoethyl}phenyl)-1-ethyl-N-methyl-4-oxo-1,4-dihydro-1,8-naphthyridine-3-carboxamide]	1.6 nM	190 nM	> 260 °C	–	–
CCn1c(N)c(C(=O)NC)c(=O)c2ccc(-c3ccc(CC(=O)Nc4cc(F)cc(F)c4)cc3)nc21 [compound 6, 2-amino-7-(4-{2-[(3,5-difluorophenyl)amino]-2-oxoethyl}phenyl)-1-ethyl-N-methyl-4-oxo-1,4-dihydro-1,8-naphthyridine-3-carboxamide]	0.57 nM	100 nM	> 260 °C	11 nM	–
CCN1CCC[C@@H]1CNC(=O)Cc1ccc(-c2ccc3c(=O)c(C(=O)NC)c(N)n(CC)c3n2)cc1 [compound 14, 2-amino-1-ethyl-7-{4-[2-({[(2R)-1-ethylpyrrolidin-2-yl]methyl}amino)-2-oxoethyl]phenyl}-N-methyl-4-oxo-1,4-dihydro-1,8-naphthyridine-3-carboxamide]	–	340 nM	270 °C	11 nM	–
CCn1c(N)c(C(=O)NC)c(=O)c2ccc(-c3ccc(CC(=O)Nc4ccncn4)cc3)nc21 [compound 16, 2-amino-1-ethyl-N-methyl-4-oxo-7-{4-[2-oxo-2-(pyrimidin-4-ylamino)-ethyl]phenyl}-1,4-dihydro-1,8-naphthyridine-3-carboxamide]	–	182 nM	> 280 °C	–	–
CCn1c(N)c(C(=O)NC)c(=O)c2ccc(-c3ccc(CC(=O)Nc4ccccn4)cn3)nc21 [compound 19, 2-amino-1-ethyl-N-methyl-4-oxo-7-{5-[2-oxo-2-(pyrid-2-ylamino)-ethyl]pyrid-2-yl}-1,4-dihydro-1,8-naphthyridine-3-carboxamide]	0.4 nM	100 nM	–	27 nM	–
CCN1CCOCC1CNC(=O)Cc1ccc(-c2ccc3c(=O)c(C(=O)NC)c(N)n(CC)c3n2)cc1 (centres unmarked) [compound 22, 2-amino-1-ethyl-7-[4-(2-{[(4-ethylmorpholin-3-yl)methyl]amino}-2-oxoethyl)phenyl]-N-methyl-4-oxo-1,4-dihydro-1,8-naphthyridine-3-carboxamide]	–	130 nM	–	0.07 nM	–
CCn1c(N)c(C(=O)NC)c(=O)c2ccc(-c3ccc(CC(=O)Nc4nccs4)cc3)nc21 [compound 35, 2-amino-1-ethyl-N-methyl-4-oxo-7-{4-[2-oxo-2-(1,3-thiazol-2-ylamino)-ethyl]phenyl}-1,4-dihydro-1,8-naphthyridine-3-carboxamide]	–	83 nM	303 °C	3.7 nM	0.8 nM
CCN1CCCC1CNC(=O)Cc1csc(-c2ccc3c(=O)c(C(=O)NC)c(N)n(CC)c3n2)n1 (centres unmarked) [compound 43, 2-amino-1-ethyl-7-[4-(2-{[(1-ethylpyrrolidin-2-yl)methyl]amino}-2-oxoethyl)-1,3-thiazol-2-yl]-N-methyl-4-oxo-1,4-dihydro-1,8-naphthyridine-3-carboxamide]	–	–	–	–	29.7 nM
CCN1CCCC1CNC(=O)Cc1ccc(-c2ccc3c(=O)c(C(=O)NC)c(N)n(C4CCCC4)c3n2)cc1 (centres unmarked) [compound 50, 2-amino-1-cyclopentyl-7-[4-(2-{[(1-ethylpyrrolidin-2-yl)methyl]amino}-2-oxoethyl)phenyl]-N-methyl-4-oxo-1,4-dihydro-1,8-naphthyridine-3-carboxamide]	3.2 nM	–	222 °C	–	–
CCN1CCCC1CNC(=O)CCCCc1ccc(-c2ccc3c(=O)c(C(=O)NC)c(N)n(CC)c3n2)cc1 (centres unmarked) [compound 51, 2-amino-1-ethyl-7-[4-(5-{[(1-ethylpyrrolidin-2-yl)methyl]amino}-5-oxopentyl)phenyl]-N-methyl-4-oxo-1,4-dihydro-1,8-naphthyridine-3-carboxamide]	–	–	180 °C	–	92.7 nM
